From US20240058283A1, “THE MODE OF ACTION OF N-MeDCPA ON TRPC CHANNELS” (West Virginia University Board of Governors on Behalf of …, priority 2022, published 2024)

Assays:
[1] = target: T1, TRPC6 (Homo sapiens, UniProt Q9Y210); test: OAG-induced Ca2+ entry in Fura2-loaded HEK293 cells expressing TRPC6; assay type: cell-based; conditions: ELP-004 0 to 1 mM for 10 minutes before OAG, FIG. 1D, read-out: IC50, inhibition of OAG-induced Ca2+ entry
T1 construct: expressed in transfected cells
T1 sequence (Q9Y210 1-931): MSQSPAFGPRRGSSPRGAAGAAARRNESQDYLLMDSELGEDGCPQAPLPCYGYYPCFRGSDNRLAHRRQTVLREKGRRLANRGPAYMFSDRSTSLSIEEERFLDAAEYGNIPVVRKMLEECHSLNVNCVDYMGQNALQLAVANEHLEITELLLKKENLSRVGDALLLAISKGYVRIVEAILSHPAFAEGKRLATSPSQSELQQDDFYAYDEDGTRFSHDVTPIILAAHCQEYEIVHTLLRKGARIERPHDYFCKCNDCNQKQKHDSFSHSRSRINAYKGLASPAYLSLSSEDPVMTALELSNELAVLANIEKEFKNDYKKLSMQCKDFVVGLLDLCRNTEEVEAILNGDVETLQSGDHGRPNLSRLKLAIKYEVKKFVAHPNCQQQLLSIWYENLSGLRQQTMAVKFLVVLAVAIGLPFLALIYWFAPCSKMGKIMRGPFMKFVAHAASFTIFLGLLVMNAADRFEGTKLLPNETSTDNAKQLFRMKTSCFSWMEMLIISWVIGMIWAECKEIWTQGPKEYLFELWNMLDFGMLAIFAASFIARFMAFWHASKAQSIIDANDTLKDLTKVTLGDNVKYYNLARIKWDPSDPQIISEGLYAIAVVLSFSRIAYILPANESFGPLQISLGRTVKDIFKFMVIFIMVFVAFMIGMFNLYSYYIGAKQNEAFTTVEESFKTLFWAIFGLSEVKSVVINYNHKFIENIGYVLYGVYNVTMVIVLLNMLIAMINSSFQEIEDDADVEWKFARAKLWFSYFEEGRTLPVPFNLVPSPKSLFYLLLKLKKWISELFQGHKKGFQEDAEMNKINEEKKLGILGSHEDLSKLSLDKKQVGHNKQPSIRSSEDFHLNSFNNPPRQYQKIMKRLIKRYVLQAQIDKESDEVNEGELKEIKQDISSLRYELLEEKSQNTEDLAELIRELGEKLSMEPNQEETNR
Method: Inhibition of DAG-mediated TRPC activation. To determine if ELP-004 (N-MeDCPA) inhibits DAG-induced TRPC activation, HEK293 cells expressing TRPC3, TRPC6 or TRPC7 were loaded with Fura2 and incubated with ELP-004 (0 to 1 mM) for 10 minutes prior to challenging with 1-Oleoyl-2-acetyl-sn-glycerol (OAG), a membrane permeable form of diacylglycerol.
Cell Culture—HEK293 cells were grown in DMEM with 4.5 g/L glucose supplemented with 10% FBS and 1% Gentamycin (Full DMEM media; Thermo-Fisher Scientific, Waltham, MA) at 37° C. and 5% CO2. […]
TRPC activity assay—Cells grown on glass coverslips were incubated in a cation-safe buffer (107 mM NaCl, 7.2 mM KCl, 1.2 mM MgCl2, 11.5 mM Glucose, 20 mM HEPES-NaOH, 1 mM CaCl2), pH 7.2) and loaded with Fura2-acetoxymethylester (Fura2-AM; 2 μM) for 30 min at 24° C. as previously described^10,11. […] Ca^2+/Sr^2+ measurements were taken using a Leica DMI 6000B fluorescence microscope controlled by Slidebook software (Intelligent Imaging Innovations, Denver, CO). Fluorescence emission at 505 nm was monitored in response to excitation at alternating 340 nm and 380 nm wavelengths at a frequency of 0.67 Hz; intracellular Ca^2+ measurements are shown at 340/380 nm ratios obtained from groups of 35-45 single cells.

[2] = target: T2, TRPC4 (Homo sapiens, UniProt Q9UBN4); test: FIG. 4 TRPC4 overexpressing cells, fura, OAG in the presence of Ca2+; assay type: cell-based; conditions: TRPC4 O/E cells, Ca2+ present, N=4
T2 construct: expressed in transfected cells; host or cells: HEK293 (transient transfection)
T2 sequence (Q9UBN4 1-977): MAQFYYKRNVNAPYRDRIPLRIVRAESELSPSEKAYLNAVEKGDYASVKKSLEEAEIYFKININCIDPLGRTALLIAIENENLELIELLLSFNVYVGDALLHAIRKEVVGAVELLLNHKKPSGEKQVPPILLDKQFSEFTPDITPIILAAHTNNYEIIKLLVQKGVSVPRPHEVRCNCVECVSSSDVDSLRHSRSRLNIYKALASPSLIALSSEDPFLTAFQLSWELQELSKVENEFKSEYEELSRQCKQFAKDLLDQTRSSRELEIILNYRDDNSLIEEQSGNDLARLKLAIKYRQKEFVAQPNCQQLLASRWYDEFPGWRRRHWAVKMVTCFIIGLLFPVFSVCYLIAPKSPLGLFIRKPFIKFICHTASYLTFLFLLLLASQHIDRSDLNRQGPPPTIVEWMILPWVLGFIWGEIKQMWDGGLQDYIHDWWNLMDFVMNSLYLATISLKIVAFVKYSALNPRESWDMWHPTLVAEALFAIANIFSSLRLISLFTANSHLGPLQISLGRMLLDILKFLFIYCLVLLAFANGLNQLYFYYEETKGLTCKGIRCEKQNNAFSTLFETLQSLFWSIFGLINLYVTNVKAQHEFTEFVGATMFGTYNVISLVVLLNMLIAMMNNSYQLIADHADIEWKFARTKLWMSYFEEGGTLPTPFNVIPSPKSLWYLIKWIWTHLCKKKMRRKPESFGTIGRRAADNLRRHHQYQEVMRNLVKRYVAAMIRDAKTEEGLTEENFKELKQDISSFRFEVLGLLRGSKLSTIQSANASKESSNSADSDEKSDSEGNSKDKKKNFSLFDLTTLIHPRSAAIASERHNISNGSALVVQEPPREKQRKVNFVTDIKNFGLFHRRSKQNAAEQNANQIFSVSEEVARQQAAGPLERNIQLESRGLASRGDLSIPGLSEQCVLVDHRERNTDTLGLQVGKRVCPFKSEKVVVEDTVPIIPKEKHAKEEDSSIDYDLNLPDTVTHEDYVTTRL
Description: The assay was done in the presence of Ca^2+. OAG (1-Oleoyl-2-acetyl-sn-glycerol) is a cell permeable DAG analog and directly activates these TRPC channels (i.e. TRPC4 and TRPC5).

[3] = test system: CYP enzymes; test: Induction of CYP enzymes; assay type: in vitro ADME

With `CCC(=O)N(C)c1ccc(Cl)c(Cl)c1` [ELP-004, N-(3,4-dichlorophenyl)-N-methylpropanamide] the IC50 [1] was 1000 to 2000 nM, the IC50 [2] was 172 nM and the “effect on induction of CYP enzymes” value [3] was “no deleterious effect on induction of CYP enzymes”.
